Data taken from patent US20210045385A1, “PYRIDAZINONE-SUBSTITUTED KETOXIMES AS HERBICIDES” (FMC Corporation, priority 2018, published 2021).

Experiments:
Type in all cases: in vivo
kochia (Kochia scoparia) [1] = experiment: Test A preemergence, visual plant response rating; conditions: for Kochia plant response rating: 125 g ai/ha, preemergence, 0 to 100 scale, 0 no effect, 100 complete control; for Kochia plant response rating (0 to 100 scale): 500 g ai/ha Preemergence, approx. 10 days
Procedure, shortened: (§1)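 Ratings 0–100 (100 = complete control), visual, vs untreated controls at ~10 days. Application pre- or postemergence; solvent mixture with surfactant; loam/sand medium.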

[2] = tested on: Italian ryegrass (Lolium multiflorum); experiment: Test A preemergence, visual plant response rating; conditions: for Ryegrass, Italian plant response rating: 125 g ai/ha, preemergence, 0 to 100 scale, 0 no effect, 100 complete control; for Ryegrass, Italian plant response rating (0 to 100 scale): 500 g ai/ha Preemergence, approx. 10 days
Procedure, shortened: as §1

[3] = tested on: barnyardgrass (Echinochloa crus-galli); experiment: Test A preemergence, visual plant response rating; conditions: for Barnyardgrass plant response rating: 125 g ai/ha, preemergence, 0 to 100 scale, 0 no effect, 100 complete control; for Barnyardgrass plant response rating (0 to 100 scale): 500 g ai/ha Preemergence, approx. 10 days
Procedure, shortened: as §1

[4] = tested on: foxtail, giant (giant foxtail, Setaria faberii); experiment: Test A preemergence, visual plant response rating; conditions: for Foxtail, Giant plant response rating: 125 g ai/ha, preemergence, 0 to 100 scale, 0 no effect, 100 complete control; for Foxtail, Giant plant response rating (0 to 100 scale): 500 g ai/ha Preemergence, approx. 10 days
Procedure, shortened: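 Compared with untreated controls, treated plants received a visual injury score on a 0–100 scale around 10 days after application. The compound, in a non-phytotoxic solvent with surfactant, was given as a preemergence soil spray or postemergence at the one- to two-leaf stage.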

[5] = tested on: ragweed (common ragweed, Ambrosia elatior); experiment: Test A preemergence, visual plant response rating; conditions: for Ragweed plant response rating: 125 g ai/ha, preemergence, 0 to 100 scale, 0 no effect, 100 complete control; for Ragweed plant response rating (0 to 100 scale): 500 g ai/ha Preemergence, approx. 10 days
Procedure, shortened: as §1

[6] = tested on: pigweed (Amaranthus retroflexus); experiment: Test A preemergence, visual plant response rating; conditions: for Pigweed plant response rating: 125 g ai/ha, preemergence, 0 to 100 scale, 0 no effect, 100 complete control; for Pigweed plant response rating (0 to 100 scale): 500 g ai/ha Preemergence, approx. 10 days
Procedure, shortened: as §1

corn (Zea mays) = experiment: Test A postemergence, visual plant response rating; conditions: for Corn plant response rating (0 to 100 scale): 500 g ai/ha, postemergence, 0 is no effect, 100 is complete control; for Corn plant response rating: Postemergence, 125 g ai/ha, 0 to 100 scale (0 no effect, 100 complete control)
Procedure, shortened: as §1

kochia (Kochia scoparia) [7] = experiment: Test A postemergence, visual plant response rating; conditions: for Kochia plant response rating (0 to 100 scale): 500 g ai/ha, postemergence, 0 is no effect, 100 is complete control; for Kochia plant response rating: Postemergence, 125 g ai/ha, 0 to 100 scale (0 no effect, 100 complete control)
Procedure, shortened: as §1

[8] = tested on: Italian ryegrass (Lolium multiflorum); experiment: Test A postemergence, visual plant response rating; conditions: for Ryegrass, Italian plant response rating (0 to 100 scale): 500 g ai/ha, postemergence, 0 is no effect, 100 is complete control; for Ryegrass, Italian plant response rating: Postemergence, 125 g ai/ha, 0 to 100 scale (0 no effect, 100 complete control)
Procedure, shortened: as §1

[9] = tested on: wheat (Triticum aestivum); experiment: Test A postemergence, visual plant response rating; conditions: for Wheat plant response rating (0 to 100 scale): 500 g ai/ha, postemergence, 0 is no effect, 100 is complete control; for Wheat plant response rating: Postemergence, 125 g ai/ha, 0 to 100 scale (0 no effect, 100 complete control)
Procedure, shortened: as §1

[10] = tested on: barnyardgrass (Echinochloa crus-galli); experiment: Test A postemergence, visual plant response rating; conditions: for Barnyardgrass plant response rating (0 to 100 scale): 500 g ai/ha, postemergence, 0 is no effect, 100 is complete control; for Barnyardgrass plant response rating: Postemergence, 125 g ai/ha, 0 to 100 scale (0 no effect, 100 complete control)
Procedure, shortened: as §1

[11] = tested on: foxtail, giant (giant foxtail, Setaria faberii); experiment: Test A postemergence, visual plant response rating; conditions: for Foxtail, Giant plant response rating (0 to 100 scale): 500 g ai/ha, postemergence, 0 is no effect, 100 is complete control; for Foxtail, Giant plant response rating: Postemergence, 125 g ai/ha, 0 to 100 scale (0 no effect, 100 complete control)
Procedure, shortened: as §1

[12] = tested on: ragweed (common ragweed, Ambrosia elatior); experiment: Test A postemergence, visual plant response rating; conditions: for Ragweed plant response rating (0 to 100 scale): 500 g ai/ha, postemergence, 0 is no effect, 100 is complete control; for Ragweed plant response rating: Postemergence, 125 g ai/ha, 0 to 100 scale (0 no effect, 100 complete control)
Procedure, shortened: as §1

[13] = tested on: blackgrass (Alopecurus myosuroides); experiment: Test A postemergence, visual plant response rating; conditions: for Blackgrass plant response rating (0 to 100 scale): 500 g ai/ha, postemergence, 0 is no effect, 100 is complete control; for Blackgrass plant response rating: Postemergence, 125 g ai/ha, 0 to 100 scale (0 no effect, 100 complete control)
Procedure, shortened: as §1

[14] = tested on: galium (catchweed bedstraw, Galium aparine); experiment: Test A postemergence, visual plant response rating; conditions: for Galium plant response rating (0 to 100 scale): 500 g ai/ha, postemergence, 0 is no effect, 100 is complete control; for Galium plant response rating: Postemergence, 125 g ai/ha, 0 to 100 scale (0 no effect, 100 complete control)
Procedure, shortened: as §1

[15] = tested on: pigweed (Amaranthus retroflexus); experiment: Test A postemergence, visual plant response rating; conditions: for Pigweed plant response rating (0 to 100 scale): 500 g ai/ha, postemergence, 0 is no effect, 100 is complete control; for Pigweed plant response rating: Postemergence, 125 g ai/ha, 0 to 100 scale (0 no effect, 100 complete control)
Procedure, shortened: as §1

[16] = tested on: ducksalad (Heteranhera limosa); experiment: Test B flooded paddy test, visual plant response rating; conditions: 250 g ai/ha, Flood, applied to paddy water, 2-leaf stage, evaluated after 13 to 15 days
Procedure, shortened: (§2)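 Compounds added straight into paddy water of pots flooded to 3 cm, with 2-leaf-stage plants of the four species; water level held throughout.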

[17] = tested on: sedge, umbrella (small-flower umbrella sedge, Cyperus difformis); experiment: as above; conditions: 250 g ai/ha, Flood, applied to paddy water, 2-leaf stage, evaluated after 13 to 15 days
Procedure, shortened: as §2

[18] = tested on: barnyardgrass (Echinochloa crus-galli); experiment: as above; conditions: 250 g ai/ha, Flood, applied to paddy water, 2-leaf stage, evaluated after 13 to 15 days
Procedure, shortened: as §2

rice (Oryza sativa) = experiment: as above; conditions: 250 g ai/ha, Flood, applied to paddy water, 2-leaf stage, evaluated after 13 to 15 days
Procedure, shortened: as §2

| SMILES | Kochia plant response rating (kochia (Kochia scoparia) [1]) | Kochia plant response rating (0 to 100 scale) (kochia (Kochia scoparia) [1]) | Ryegrass, Italian plant response rating [2] | Ryegrass, Italian plant response rating (0 to 100 scale) [2] | Barnyardgrass plant response rating [3] | Barnyardgrass plant response rating (0 to 100 scale) [3] | Foxtail, Giant plant response rating [4] | Foxtail, Giant plant response rating (0 to 100 scale) [4] | Ragweed plant response rating [5] | Ragweed plant response rating (0 to 100 scale) [5] | Pigweed plant response rating [6] | Pigweed plant response rating (0 to 100 scale) [6] | Corn plant response rating (0 to 100 scale) (corn (Zea mays)) | Corn plant response rating (corn (Zea mays)) | Kochia plant response rating (0 to 100 scale) (kochia (Kochia scoparia) [7]) | Kochia plant response rating (kochia (Kochia scoparia) [7]) | Ryegrass, Italian plant response rating (0 to 100 scale) [8] | Ryegrass, Italian plant response rating [8] | Wheat plant response rating (0 to 100 scale) [9] | Wheat plant response rating [9] | also measured |
| --- | --- | --- | --- | --- | --- | --- | --- | --- | --- | --- | --- | --- | --- | --- | --- | --- | --- | --- | --- | --- | --- |
| CO/N=C(/c1ccccc1F)c1c(O)c(C)nn(C)c1=O [Compound 34] | 0 | 0 | 10 | 60 | 0 | 0 | 0 | 40 | 20 | 50 | 0 | 10 | 0 | 0 | 20 | 10 | 60 | 20 | 20 | 20 | Barnyardgrass plant response rating (0 to 100 scale) [10]: 20; Barnyardgrass plant response rating [10]: 0; Foxtail, Giant plant response rating (0 to 100 scale) [11]: 10; Foxtail, Giant plant response rating [11]: 0; Ragweed plant response rating (0 to 100 scale) [12]: 50; Ragweed plant response rating [12]: 40; Blackgrass plant response rating (0 to 100 scale) [13]: 10; Blackgrass plant response rating [13]: 0; Galium plant response rating (0 to 100 scale) [14]: 70; Galium plant response rating [14]: 40; Pigweed plant response rating (0 to 100 scale) [15]: 20; Pigweed plant response rating [15]: 20; Plant response rating, Ducksalad (0 to 100 scale, 0 is no effect, 100 is complete control) [16]: 0; Plant response rating, Sedge, Umbrella (0 to 100 scale, 0 is no effect, 100 is complete control) [17]: 0; Plant response rating, Barnyardgrass (0 to 100 scale, 0 is no effect, 100 is complete control) [18]: 0; Plant response rating, Rice (0 to 100 scale, 0 is no effect, 100 is complete control) (rice (Oryza sativa)): 0 |
| CO/N=C(/c1ccccc1C(C)C)c1c(O)c(C)nn(C)c1=O [Compound 93] | 0 | 0 | 20 | 70 | 0 | 50 | 10 | 30 | 0 | 0 | 0 | 20 | 10 | 10 | 30 | 0 | 80 | 40 | 10 | 0 | Barnyardgrass plant response rating (0 to 100 scale) [10]: 20; Barnyardgrass plant response rating [10]: 10; Foxtail, Giant plant response rating (0 to 100 scale) [11]: 40; Foxtail, Giant plant response rating [11]: 30; Ragweed plant response rating (0 to 100 scale) [12]: 50; Ragweed plant response rating [12]: 10; Blackgrass plant response rating (0 to 100 scale) [13]: 70; Blackgrass plant response rating [13]: 0; Galium plant response rating (0 to 100 scale) [14]: 70; Galium plant response rating [14]: 60; Pigweed plant response rating (0 to 100 scale) [15]: 80; Pigweed plant response rating [15]: 50; Plant response rating, Ducksalad (0 to 100 scale, 0 is no effect, 100 is complete control) [16]: 65; Plant response rating, Sedge, Umbrella (0 to 100 scale, 0 is no effect, 100 is complete control) [17]: 0; Plant response rating, Barnyardgrass (0 to 100 scale, 0 is no effect, 100 is complete control) [18]: 0; Plant response rating, Rice (0 to 100 scale, 0 is no effect, 100 is complete control) (rice (Oryza sativa)): 0 |
| CCC(=O)Oc1c(C)nn(C)c(=O)c1C(=NOC)c1cccc2ccccc12 [Compound 49] | 50 | 70 | 40 | 70 | 30 | 90 | 50 | 80 | 100 | 100 | 90 | 100 | 50 | 0 | 90 | 70 | 80 | 40 | 10 | 0 | Barnyardgrass plant response rating (0 to 100 scale) [10]: 50; Barnyardgrass plant response rating [10]: 20; Foxtail, Giant plant response rating (0 to 100 scale) [11]: 80; Foxtail, Giant plant response rating [11]: 40; Ragweed plant response rating (0 to 100 scale) [12]: 90; Ragweed plant response rating [12]: 80; Blackgrass plant response rating (0 to 100 scale) [13]: 90; Blackgrass plant response rating [13]: 70; Galium plant response rating (0 to 100 scale) [14]: 90; Galium plant response rating [14]: 80; Pigweed plant response rating (0 to 100 scale) [15]: 90; Pigweed plant response rating [15]: 80; Plant response rating, Ducksalad (0 to 100 scale, 0 is no effect, 100 is complete control) [16]: 0; Plant response rating, Sedge, Umbrella (0 to 100 scale, 0 is no effect, 100 is complete control) [17]: 0; Plant response rating, Barnyardgrass (0 to 100 scale, 0 is no effect, 100 is complete control) [18]: 0; Plant response rating, Rice (0 to 100 scale, 0 is no effect, 100 is complete control) (rice (Oryza sativa)): 0 |
